Experimental findings from patent US11186564B2, “Dual NAV1.2/5HT2a inhibitors for treating CNS disorders” (Sunovion Pharmaceuticals Inc., priority 2016, dated 2021) are described below.

One may read the IC50 as the concentration needed to halve the response being measured.

T1 sequence (P28223 whole entry): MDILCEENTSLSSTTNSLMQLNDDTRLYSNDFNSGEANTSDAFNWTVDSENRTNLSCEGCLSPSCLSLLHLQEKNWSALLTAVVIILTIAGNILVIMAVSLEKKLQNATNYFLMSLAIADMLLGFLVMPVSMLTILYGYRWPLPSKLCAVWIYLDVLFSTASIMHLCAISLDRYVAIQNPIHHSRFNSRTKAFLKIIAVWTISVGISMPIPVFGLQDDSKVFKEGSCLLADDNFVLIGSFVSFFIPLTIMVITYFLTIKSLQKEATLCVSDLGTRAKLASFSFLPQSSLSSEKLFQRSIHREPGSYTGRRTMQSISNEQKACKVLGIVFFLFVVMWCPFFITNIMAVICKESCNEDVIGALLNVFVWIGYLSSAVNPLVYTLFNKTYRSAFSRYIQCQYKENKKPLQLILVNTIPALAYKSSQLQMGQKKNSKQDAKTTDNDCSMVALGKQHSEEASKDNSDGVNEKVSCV

This experiment addresses T1, recombinant human serotonin receptor 5-HT2A (Homo sapiens, UniProt P28223).
T1 construct: expressed in transfected cells; method B: loaded with Ca2+ dye
The experiment can be described thus: 5-HT2A antagonist Ca2+ assay in CHO-K1 cells (method A aequorin luminescence / method B FLIPR fluorescence). It is filed as cell-based. Particulars: antagonist mode vs EC80 of reference agonist, method A or B, read-out: 5HT2A IC50. The method, boiled down:
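Method A: CHO-K1 cells co-expressing human 5-HT2A and mitochondrial apoaequorin were given reference agonist at EC80 15 min after compound, with luminescence read. Method B: dye-loaded 5-HT2A CHO-K1 cells were pretreated with compound, then given serotonin at EC80, with FLIPR fluorescence read. IC50s came from nonlinear fits of percent inhibition.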
For the compound `COc1cccc(O[C@H]2CCN(CC(O)CO[C@@H]3CCc4ccccc43)C2)c1` (stereo partly drawn) [Example 41, 1-(((R)-2,3-dihydro-1H-inden-1-yl)oxy)-3-((S)-3-(3-methoxyphenoxy)pyrrolidin-1-yl)propan-2-ol], the IC50 amounted to 7.13 µM.
Regarding `COC(CCN1CCC(Oc2ccccc2)CC1)c1ccccc1` (stereo not shown) [Example 226, 1-(3-methoxy-3-phenylpropyl)-4-phenoxypiperidine], the IC50 is 0.02 µM.
On to `O=C1c2ccccc2CCN1CCN1CCOC(Cc2ccccc2)C1` (stereo not shown) [Example 252, 2-(2-(2-benzylmorpholino)ethyl)-3,4-dihydroisoquinolin-1(2H)-one], for which the concentration for half-maximal inhibition (IC50) is more than 16.7 µM.
The value for `O=C1c2ccccc2CCN1CCN1CC[C@@H](Oc2ccncc2)C1` [Example 29, (R)-2-(2-(3-(pyridin-4-yloxy)pyrrolidin-1-yl)ethyl)-3,4-dihydroisoquinolin-1(2H)-one] was more than 16.7 µM.
Next, `COCc1cccc(OC2CCN(CC3Cc4cccnc4C3)CC2)c1` (stereo not shown) [Example 152, 6-((4-(3-(methoxymethyl)phenoxy)piperidin-1-yl)methyl)-6,7-dihydro-5H-cyclopenta[b]pyridine]: 0.22 µM; `COc1ccc2c(c1)C(CN1CCC(Oc3cccc(C#N)c3)CC1)CC2` (stereo not shown) [Example 110, 3-((1-((6-methoxy-2,3-dihydro-1H-inden-1-yl)methyl)piperidin-4-yl)oxy)benzonitrile]: 4.04 µM.
The value for `Cc1cccc(N2CCN(CC3(O)CCOc4ccccc43)CC2)c1C` (stereo not shown) [Example 58, 4-((4-(2,3-dimethylphenyl)piperazin-1-yl)methyl)chroman-4-ol] was 0.49 µM; that for `OC(COC1CCCCC1)CN1CCC2(CCCN(c3ccccc3)C2)C1` (stereo not shown) [Example 351, 1-(cyclohexyloxy)-3-(7-phenyl-2,7-diazaspiro[4.5]decan-2-yl)propan-2-ol] was more than 16.7 µM.
For `COc1ccccc1O[C@H]1CCN(CC2Cc3ccccc3C2)[C@@H](C)C1` [Example 143, (2S,4S)-1-((2,3-dihydro-1H-inden-2-yl)methyl)-4-(2-methoxyphenoxy)-2-methylpiperidine], the IC50 is 0.08 µM.
For the compound `c1ccc2c(c1)CC1(CCN(CC3Cc4cccnc4C3)CC1)O2` (stereo not shown) [Example 397, 1′-((6,7-dihydro-5H-cyclopenta[b]pyridin-6-yl)methyl)-3H-spiro[benzofuran-2,4′-piperidine]], the IC50 was 2.76 µM.
The value for `COc1ccccc1OC1CCN(CC2CCc3ccccc32)CC1` (stereo not shown) [Example 105, 1-((2,3-dihydro-1H-inden-1-yl)methyl)-4-(2-methoxyphenoxy)piperidine] was 0.43 µM; that for `CC1Cc2ccccc2C(=O)N1CCN1CCC(Oc2cccc(Cl)c2)CC1` (stereo not shown) [Example 198, 2-(2-(4-(3-chlorophenoxy)piperidin-1-yl)ethyl)-3-methyl-3,4-dihydroisoquinolin-1(2H)-one] was 0.41 µM; that for `COc1ccc2c(c1)C(CN1C[C@H]3CC[C@@H]1CN3c1ccccc1)CC2` (single isomer, unassigned) [Compound 314] was more than 10 µM.
The value for `OC(COc1ccccc1)CN1C[C@@H]2C[C@H](C1)N(c1ccccc1)C2` (stereo partly drawn) [Example 334, 1-phenoxy-3-((1S,5R)-6-phenyl-3,6-diazabicyclo[3.2.1]octan-3-yl)propan-2-ol] was more than 16.7 µM.
As to `COc1ccc2c(c1)C(CN1CCC(Oc3cncnc3)CC1)CC2` (stereo not shown) [Example 126, 5-((1-((6-methoxy-2,3-dihydro-1H-inden-1-yl)methyl)piperidin-4-yl)oxy)pyrimidine], the IC50 is more than 3.16 µM.
The value for `O=C1c2ccccc2CCN1CCN1CCCCC(Oc2ccc(F)cc2)C1` (stereo not shown) [Example 280, 2-(2-(3-(4-fluorophenoxy)azepan-1-yl)ethyl)-3,4-dihydroisoquinolin-1(2H)-one] was 4.89 µM; that for `Cc1cccc(N2CCN(CC3CCOc4ccccc43)CC2)c1C` (stereo not shown) [Example 59, 1-(chroman-4-ylmethyl)-4-(2,3-dimethylphenyl)piperazine] was 0.8 µM.
The value for `Fc1ccc(OC2CCCN(CC3Cc4cccnc4C3)CC2)cc1` (stereo not shown) [Example 273, 6-((4-(4-fluorophenoxy)azepan-1-yl)methyl)-6,7-dihydro-5H-cyclopenta[b]pyridine] was 0.02 µM; that for `COc1ccccc1OC1CCN(CC2COc3ccccc32)CC1` (stereo not shown) [Example 130, 1-((2,3-dihydrobenzofuran-3-yl)methyl)-4-(2-methoxyphenoxy)piperidine] was more than 10 µM; that for `COc1ccc2c(c1)C(CN1C[C@H]3CC[C@@H]1CN3c1ccccc1)CC2` (single isomer, unassigned) [Compound 313] was more than 10 µM.
The value for `c1ccc(CCN2C[C@H]3CC[C@@H](C2)N3c2ccccc2)cc1` [Example 298, (1R,5S)-3-phenethyl-8-phenyl-3,8-diazabicyclo[3.2.1]octane] was more than 11 µM.
On to `OC(COc1ccccc1)CN1C[C@H]2CC[C@@H](C1)N2c1ccccc1` (stereo partly drawn) [Example 302, 1-phenoxy-3-((1R,5S)-8-phenyl-3,8-diazabicyclo[3.2.1]octan-3-yl)propan-2-ol], for which the IC50 is more than 2.7 µM.
For the compound `COc1ccccc1O[C@H]1CCN(CCC2CCOc3ccccc32)[C@@H](C)C1` (stereo partly drawn) [Example 181, (2S,4S)-1-(2-(chroman-4-yl)ethyl)-4-(2-methoxyphenoxy)-2-methylpiperidine], the IC50 is more than 10 µM.
Take `C[C@H]1C[C@]2(CCc3ccccc3O2)CCN1CCO[C@H]1CCc2ccccc21` [Example 433, (2S,2′S)-1′-(2-(((S)-2,3-dihydro-1H-inden-1-yl)oxy)ethyl)-2′-methylspiro[chromane-2,4′-piperidine]]: the IC50 was determined as 0.32 µM.
The value for `Fc1ccc(N2CCC3(CCN(CC4Cc5ccncc5C4)C3)C2)cc1` (stereo not shown) [Example 341, 2-((6,7-dihydro-5H-cyclopenta[c]pyridin-6-yl)methyl)-7-(4-fluorophenyl)-2,7-diazaspiro[4.4]nonane] was 3.12 µM.
The value for `O[C@@H](COC1CCCCC1)CN1C[C@H]2CC[C@@H](C1)N2c1ccccc1` [Example 301, (R)-1-(cyclohexyloxy)-3-((1R,5S)-8-phenyl-3,8-diazabicyclo[3.2.1]octan-3-yl)propan-2-ol] was more than 10 µM.
The value for `O=C1c2ccccc2CCN1CCN1CCC[C@@H](Oc2ccc(F)cc2)C1` [Example 264, (R)-2-(2-(3-(4-fluorophenoxy)piperidin-1-yl)ethyl)-3,4-dihydroisoquinolin-1(2H)-one] was 0.94 µM.
Take `OC1(CN2CCC3(CCc4ccccc4O3)CC2)COCc2ccccc21` (stereo not shown) [Example 413, 4-(spiro[chromane-2,4′-piperidin]-1′-ylmethyl)isochroman-4-ol]: the IC50 amounted to 1.1 µM.
